Source: US11065251B2, “PAK1 inhibitors and uses thereof” (Albert Einstein College of Medicine, priority 2016, dated 2021)
Values after ≈ are worked out from the molar mass of the structure shown. Like-named read-outs stand apart in the source and are kept apart here.

What was measured:
[1] = Microsomal stability, rat (RLM); type: in vitro ADME
Caco-2 permeability = type: in vitro ADME; settings: human
PAK1 = PAK1 (Homo sapiens, UniProt Q13153); assay: PAK1 IC50 determination, Z'-LYTE kinase assay; type: biochemical; settings: [ATP]=10×Km; [PAK1]=1 ng; read-out: IC50 against PAK1
Chain of PAK1 (Q13153 whole entry): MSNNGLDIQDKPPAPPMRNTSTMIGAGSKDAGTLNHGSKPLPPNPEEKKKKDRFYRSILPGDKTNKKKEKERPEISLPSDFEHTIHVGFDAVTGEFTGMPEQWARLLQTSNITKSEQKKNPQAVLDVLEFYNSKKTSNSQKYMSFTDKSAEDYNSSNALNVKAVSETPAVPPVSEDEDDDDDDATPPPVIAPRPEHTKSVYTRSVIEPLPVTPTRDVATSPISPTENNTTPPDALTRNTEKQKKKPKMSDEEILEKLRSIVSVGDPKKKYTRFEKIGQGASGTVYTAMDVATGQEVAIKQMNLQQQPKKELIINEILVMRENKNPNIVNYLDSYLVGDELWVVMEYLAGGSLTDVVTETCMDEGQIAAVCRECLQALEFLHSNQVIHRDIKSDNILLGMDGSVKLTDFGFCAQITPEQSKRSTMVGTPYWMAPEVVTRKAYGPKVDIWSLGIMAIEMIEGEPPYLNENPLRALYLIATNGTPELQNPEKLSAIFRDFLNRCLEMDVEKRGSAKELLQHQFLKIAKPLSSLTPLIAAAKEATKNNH
Method: Protocol for determining IC50 Values for test compounds at [ATP]=10×Km; [PAK1]=1 ng
Add 2 ml 5× Kinase Buffer to 8 ml water to prepare […] of Kinase Buffer A.
• Thaw the concentrated stock of test compound at room temperature. • 2.1. Add 10 μl of 100% DMSO to row A, columns 2-11 (wells A2-A11) in a 96-well assay plate (non-binding surface). To well A1, add 15 μl of the concentrated stock of test compound. This will be the highest concentration of test compound in a 10-point titration curve. Use a concentration that is 100× the final desired 1× concentration per 10 μl kinase reaction. For example, if the final 1× concentration of 100 μM is desired for the highest concentration of test compound in the 10 point titration curve, add 15 μl of 10 mM test compound to well A1. • 2.2. Titrate the 100× test compound three-fold across the assay plate from well A1 to well A10. To perform this threefold titration, transfer 5 μl of the 100× test compound from well A1 to the 10 μl of 100% DMSO in well A2. Repeat for wells A2-A10. Discard the final 5 μl from well A10 so that all wells contain 10 μl. […] This completes the 10-point three-fold titration of test compound at 100× concentration. • 2.3. Transfer a 2 μl aliquot of the 100× test compound titration series from each well in row A of the 96-well assay plate (wells A1-A12) to row B (wells B1-B12). Add 48 μl of complete kinase reaction buffer to each well in row B to dilute the 100× three-fold titration series of test compound to 4× (the DMSO will also be diluted, to 4%). • 2.4. Transfer 2.5 μl of the 4× concentrated three-fold titration series of test compound from row B of the 96-well assay plates to quadruplicate wells of a 384-well assay plate. Each well in columns 21-24 should contain 2.5 μl of 4% DMSO (no compound) in complete kinase reaction buffer. This 2.5 μl addition of 4× test compound in 4% DMSO produces a 1× concentration of test compound in 1% DMSO for a 10 μl kinase reaction. • 2.5. Dispense 2.5 μl of complete kinase reaction buffer to each well in columns 23-24 of the 384-well assay plate.
• 1. Prepare 500 μl of 4 μM Z′-LYTE® Phospho-peptide by adding 2 μl of 1 mM Z′-LYTE® Phospho-peptide to 498 μl of complete kinase reaction buffer. • 2. Dispense 5 μl of the 4 μM Z′-LYTE® Phospho-peptide (2×) to each well in column 24 of the 384-well assay plate. • 3. Prepare 1000 μl of 4 μM Z′-LYTE® Peptide Substrate (2×)/2× kinase solution in complete kinase reaction buffer. If necessary, prepare an intermediate dilution of the kinase in complete kinase reaction buffer before preparing the Z′-LYTE™ Peptide Substrate (2×)/2× kinase solution. Use the appropriate 2× kinase concentration in the assay to phosphorylate 20-50% of the 0% inhibition controls at the ATP concentration desired. • 4. […]

[2] = Pharmacokinetic (PK) assessment in rats; type: in vivo; settings: for Cmax / Tmax / MRT last / half-life / AUC(0-t) / AUC(0-inf): rat, plasma; for MRT last: read-out: MRT MRT last; for half-life: read-out: T ½ HL_Lambda_z (converted); for AUC(0-t): read-out: AUC0→t AUC last; for AUC(0-inf): read-out: AUC0→∞ AUC INF_obs
Solubility assessment = type: physicochemical; settings: kinetic from dmso stock
[3] = Microsomal stability, human (HLM); type: in vitro ADME

half-life ([1]; liver microsomes, rat microsomes, read-out: t½): 2.45 h
microsomal CLint ([1]; rat, rat liver microsomes, RLM): 9 µL/min/mg
efflux ratio (Caco-2 permeability; Caco-2, read-out: Assym index): 1
Papp A→B (Caco-2 permeability; Caco-2, A-B): 3.9 ×10⁻⁶ cm/s
Papp B→A (Caco-2 permeability; Caco-2, B-A): 3.8 ×10⁻⁶ cm/s
IC50 (PAK1): < 30 nM
Cl_obs ([2]; IV, 3 mg/kg): 4.97 mL/min/kg
Vss_obs ([2]; IV, 3 mg/kg): 1.705 L/kg
Biovailability ([2]; PO 30 mg/kg versus IV 3 mg/kg): 13.9%
Cmax ([2]; IV, 3 mg/kg): 3620 ng/mL
Tmax ([2]; IV, 3 mg/kg): 0.17 h
MRT last ([2]; IV, 3 mg/kg): 5 h
half-life ([2]; IV, 3 mg/kg): 5 h
Cmax ([2]; PO, 30 mg/kg): 943 ng/mL
Tmax ([2]; PO, 30 mg/kg): 8 h
MRT last ([2]; PO, 30 mg/kg): 10 h
half-life ([2]; PO, 30 mg/kg): 6.19 h
AUC(0-t) ([2]; iv, 3 mg/kg, IV, 3 mg/kg): 9750 ng·h/mL
AUC(0-inf) ([2]; iv, 3 mg/kg, IV, 3 mg/kg): 10100 ng·h/mL
AUC(0-t) ([2]; po, 30 mg/kg, PO, 30 mg/kg): 12600 ng·h/mL
AUC(0-inf) ([2]; po, 30 mg/kg, PO, 30 mg/kg): 14000 ng·h/mL
solubility (Solubility assessment; aqueous buffer, UB pH 2, 1% DMSO, read-out: Solubility in UB pH 2, 1% DMSO): 59 µM (≈ 32.8 µg/mL)
solubility (Solubility assessment; aqueous buffer, UB pH 7, 1% DMSO, read-out: Solubility in UB pH 7, 1% DMSO): 25 µM (≈ 13.9 µg/mL)
solubility (Solubility assessment; simulated gastric fluid, SGF, 1% DMSO, read-out: Solubility in SGF, 1% DMSO): 58 µM (≈ 32.2 µg/mL)
microsomal CLint ([3]; human, human liver microsomes, HLM): 12 µL/min/mg
half-life ([3]; liver microsomes, human microsomes, read-out: t½): 1.98 h
Compound: CCn1c(=O)c(-c2ccc(-c3nc(C)c[nH]3)cc2Cl)cc2cnc(Nc3ccc(N4CCN(C)CC4)cc3)nc21 [Compound 42-0125_1]
